The record followed here is US20190083521A1, “COMBINATION THERAPY FOR TREATING CANCER” (Epizyme, Inc., priority 2014, published 2019).

Broadly, the GI50 is the concentration that inhibits growth by half.

Where two headings read alike, the source gives them in different places.

In experiment [1] the test system is MOLM-13 (MLL-AF9) cells. Put plainly: Example 7 primary screen: 300 nM EPZ-5676 pre-treatment, second compound 72 h, ATPLite, GI100 shift. It counts as cell-based, human. The note with it: MOLM-13 (MLL-AF9); 300 nM EPZ-5676 pre-treatment vs DMSO. Here is the method: (§1) Cells were split using EPZ-5676 or DMSO containing growth media and further incubated for an additional 3-day pre-treatment time. Cells were finally seeded in growth media containing EPZ-5676 or DMSO in 384-well plates at 500 cell/well density. Cells were then equilibrated in incubators for 24 hours before treatment with a second compound. Treated assay plates were incubated with a second compound for 72 hours. After this time, plates were developed for endpoint analysis using ATPLite to measure ATP content, which is used as an indicator of cell viability.
(§2) “N/D” means the GI100 of the second compound could not be determined for both conditions and “-” means not tested.
(§3) Growth Inhibition (GI) as a measure of cell viability: The cell viability of vehicle was measured at the time of dosing the second agent (T0) and after seventy-two hours (T72). A GI reading of 0% represents no growth inhibition—cells treated with test compound as compared to T72 vehicle signals were measured. […] A GI 200% represents complete death of all cells in the culture well. Compounds reaching an activity plateau of GI 200% are considered cytotoxic. GI is calculated by applying the following test and equation: […]
In general terms: In ATP-based viability assays light output follows the ATP content of the culture.

For experiment [2], the system named is SKM-1 (non-MLLr) cells. Described as above. It counts as cell-based, human. The note with it: SKM-1 (non-MLLr); 300 nM EPZ-5676 pre-treatment vs DMSO. Here is the method:
as §1, §2, §3

In experiment [3] the test system is OCI-AML-4 (MLL-ENL) cells. Described as above. The format is cell-based. The note with it: OCI-AML-4 (MLL-ENL); 300 nM EPZ-5676 pre-treatment vs DMSO. Here is the method: as §1, §2, §3
Experiment [4] deals with MOLM-13 (MLL-AF9) cells. Nature of the experiment: Example 7 retest: EPZ-5676 pre-treatment, second compound 72 h, Cell Titer Glo, growth inhibition. The format is cell-based, human. Set-up: GI100: unit not given here. The note with it: for GI50: Homo sapiens; for Combination result with EPZ-5676, Retest: 150 nM EPZ-5676 pre-treatment vs DMSO. How it is done:
(§4) Cells were then treated with a second compound for 72 hours. After this time, plates were developed for endpoint analysis using Cell Titer Glo to measure ATP content, which is used as an indicator of cell viability.
as §2
(§5) Growth Inhibition (GI) as a measure of cell viability: The cell viability of vehicle was measured at the time of dosing the second agent (T0) and after seventy-two hours (T72). […] A GI 200% represents complete death of all cells in the culture well. Compounds reaching an activity plateau of GI 200% are considered cytotoxic. GI is calculated by applying the following test and equation: […]

For experiment [5], the system named is SKM-1 (non-MLLr) cells. The experiment is described as above. It counts as cell-based, human. Set-up: GI100: unit not given here. The note with it: for Combination result with EPZ-5676, Retest: 300 nM EPZ-5676 pre-treatment vs DMSO. How it is done:
as §4, §2, §5

In experiment [6] the test system is OCI-AML-4 (MLL-ENL) cells. The experiment is described as above. It counts as cell-based. The note with it: for Combination result with EPZ-5676, Retest: 300 nM EPZ-5676 pre-treatment vs DMSO. How it is done:
as §4, §2, §5

A further experiment concerns THP-1 (MLL-AF9) cells. The experiment is described as above. The format is cell-based. Also noted: GI100: unit not given here. The conditions noted are these: NRAS G12D. Here is the method:
Cells were split using EPZ-5676 or DMSO containing growth media and further incubated for an additional 3-day pre-treatment time. Cells were finally seeded in growth media containing EPZ-5676 or DMSO in 96-well plates. Cells were then treated with a second compound for 72 hours. After this time, plates were developed for endpoint analysis using Cell Titer Glo to measure ATP content, which is used as an indicator of cell viability.
as §2, §3

A further experiment deals with ML-2 (MLL-AF6) cells. Described as above. Set-up: GI100: unit not given here. The format is cell-based. How it is done:
as §4, §2, §5

For another experiment, the system named is RS4-11 (MLL-AF4) cells. The experiment is described as above. It counts as cell-based. Set-up: GI100: unit not given here. The conditions noted are these: for GI50: Homo sapiens. Here is the method:
as §4, §2, §5

[7] abbreviates: MOLM-13 (MLL-AF9), Ras mutation status: None known, second compound, 72 h.
Where [8] appears, read: MOLM-13 (MLL-AF9), Ras mutation status: None known.
Where [9] appears, read: SKM-1 (non-MLLr), KRAS K117N (homo).
Where [10] appears, read: SKM-1 (non-MLLr), KRAS K117N (homo), second compound, 72 h.
Where [11] appears, read: OCI-AML-4 (MLL-ENL), NRAS Q61R (het).
Where [12] appears, read: OCI-AML-4 (MLL-ENL), NRAS Q61R (het), second compound, 72 h.
The mark [13] stands for this setting: ML-2 (MLL-AF6), KRAS A146T (het), second compound, 72 h.
Setting [14] is: RS4-11 (MLL-AF4), Ras mutation status: None known, second compound, 72 h.

In the case of `CC(=O)Nc1cccc(-n2c(=O)n(C3CC3)c(=O)c3c(Nc4ccc(I)cc4F)n(C)c(=O)c(C)c32)c1` [Trametinib], the “Combination result with EPZ-5676, Primary screen” value (with MOLM-13 (MLL-AF9) cells [1]; in the experiment on SKM-1 (non-MLLr) cells [2]; in [3]) was “Synergy (considered synergistic if the GI100 (Growth inhibition 100) value of the second compound decreased by 2-fold or more when EPZ-5676 was added as compared to the DMSO control)” throughout. For the same compound, the GI100 with MOLM-13 (MLL-AF9) cells [4] is reported as 0.03; in the experiment with SKM-1 (non-MLLr) cells [5], 0.004; in experiment [6], 0.009; in the experiment with ML-2 (MLL-AF6) cells, 0.001; in the experiment with RS4-11 (MLL-AF4) cells, over 10. Also, the GI50 in the experiment with MOLM-13 (MLL-AF9) cells [4] (setting [7]) is 10 nM; in the experiment on SKM-1 (non-MLLr) cells [5] (setting [10]), 1 nM; in experiment [6] (setting [12]), 2 nM; with THP-1 (MLL-AF9) cells, 2 nM; with ML-2 (MLL-AF6) cells (setting [13]) it was 1 nM; in the experiment on RS4-11 (MLL-AF4) cells (setting [14]), over 10000 nM. Besides, the “Combination result with EPZ-5676, Retest” value (in the experiment on MOLM-13 (MLL-AF9) cells [4] (MOLM-13 (MLL-AF9)); with SKM-1 (non-MLLr) cells [5] (SKM-1 (non-MLLr)); in experiment [6] (OCI-AML-4 (MLL-ENL))) was “Synergy (considered synergistic if the GI100 (Growth inhibition 100) value of the second compound decreased by 2-fold or more when EPZ-5676 was added as compared to the DMSO control)” each time. The “Result (combination with EPZ-5676)” value is on record as “Synergy (considered synergistic if the GI100 (Growth inhibition 100) value of the second compound decreased by 2-fold or more when EPZ-5676 was added as compared to the DMSO control)” in the experiment on MOLM-13 (MLL-AF9) cells [4] (setting [8]); “Synergy (considered synergistic if the GI100 (Growth inhibition 100) value of the second compound decreased by 2-fold or more when EPZ-5676 was added as compared to the DMSO control)” with SKM-1 (non-MLLr) cells [5] (setting [9]); “Synergy (considered synergistic if the GI100 (Growth inhibition 100) value of the second compound decreased by 2-fold or more when EPZ-5676 was added as compared to the DMSO control)” in experiment [6] (setting [11]); “Synergy (considered synergistic if the GI100 (Growth inhibition 100) value of the second compound decreased by 2-fold or more when EPZ-5676 was added as compared to the DMSO control)” with ML-2 (MLL-AF6) cells (ML-2 (MLL-AF6), KRAS A146T (het)).
Take `CNC(=O)c1cc(Oc2ccc(NC(=O)Nc3ccc(Cl)c(C(F)(F)F)c3)cc2)ccn1` [Sorafenib]: the “Combination result with EPZ-5676, Primary screen” value in the experiment on MOLM-13 (MLL-AF9) cells [1] is on record as “Synergy (considered synergistic if the GI100 (Growth inhibition 100) value of the second compound decreased by 2-fold or more when EPZ-5676 was added as compared to the DMSO control)”. For the same compound, the “Combination result with EPZ-5676, Retest” value in the experiment with MOLM-13 (MLL-AF9) cells [4] (MOLM-13 (MLL-AF9)) was “Synergy (considered synergistic if the GI100 (Growth inhibition 100) value of the second compound decreased by 2-fold or more when EPZ-5676 was added as compared to the DMSO control)”.
For the compound `Cn1cnc2c(F)c(Nc3ccc(Br)cc3Cl)c(C(=O)NOCCO)cc21` [Selumetinib (AZD6244), Selumetinib], the “Combination result with EPZ-5676, Primary screen” value (in the experiment on MOLM-13 (MLL-AF9) cells [1]; in the experiment on SKM-1 (non-MLLr) cells [2]; in [3]) was “Synergy (considered synergistic if the GI100 (Growth inhibition 100) value of the second compound decreased by 2-fold or more when EPZ-5676 was added as compared to the DMSO control)” each time. Moreover, the GI50 in the experiment with MOLM-13 (MLL-AF9) cells [4] (setting [7]) is 1250 nM; in the experiment with SKM-1 (non-MLLr) cells [5] (setting [10]) it was 20 nM; in [6] (setting [12]), 116 nM; in the experiment on THP-1 (MLL-AF9) cells, 160 nM; in the experiment on ML-2 (MLL-AF6) cells (setting [13]), 40 nM; in the experiment on RS4-11 (MLL-AF4) cells (setting [14]), over 10000 nM. The “Combination result with EPZ-5676, Retest” value (in the experiment on MOLM-13 (MLL-AF9) cells [4] (MOLM-13 (MLL-AF9)); with SKM-1 (non-MLLr) cells [5] (SKM-1 (non-MLLr)); in experiment [6] (OCI-AML-4 (MLL-ENL))) was “Synergy (considered synergistic if the GI100 (Growth inhibition 100) value of the second compound decreased by 2-fold or more when EPZ-5676 was added as compared to the DMSO control)” in each case. Moreover, the “Result (combination with EPZ-5676)” value (with MOLM-13 (MLL-AF9) cells [4] (setting [8]); in the experiment with SKM-1 (non-MLLr) cells [5] (setting [9]); in experiment [6] (setting [11])) was “Synergy (considered synergistic if the GI100 (Growth inhibition 100) value of the second compound decreased by 2-fold or more when EPZ-5676 was added as compared to the DMSO control)” each time. In addition, the GI100 in the experiment on MOLM-13 (MLL-AF9) cells [4] (setting [7]) is recorded as 7.28; in the experiment on SKM-1 (non-MLLr) cells [5] (setting [10]) it was 0.12; in experiment [6] (setting [12]), 3.169; in the experiment with THP-1 (MLL-AF9) cells, over 10; in the experiment on ML-2 (MLL-AF6) cells (setting [13]) it was 0.93; in the experiment with RS4-11 (MLL-AF4) cells (setting [14]), over 10.
